Experimental data reported in patent US10350206B2, “Benzyl substituted indazoles as BUB1 inhibitors” (Bayer Pharma Aktiengesellschaft, priority 2014, dated 2019).
Like-named read-outs stand apart in the source and are kept apart here.

Legend:
[1] = tested on: HeLa human cervical tumor cells; test: Proliferation Assay (HeLa+Paclitaxel); type: cell-based; settings: 3 nM paclitaxel, test substance 92 hours; read-out: Biological Assay 3: Proliferation Assay (HeLa + Paclitaxel) IC50
Experimental: Proliferation Assay (HeLa+Paclitaxel):
(§1) Cultivated HeLa human cervical tumor cells (DSMZ ACC-57) were plated at a density of 3000 cells/well in a 96-well multititer plate in 200 μL of growth medium supplemented 10% fetal calf serum. After 24 hours, the cells of one plate (zero-point plate) were stained with crystal violet (see below). The medium of the other plates was supplemented with 3 nM of paclitaxel (Sigma-Aldrich) and the cells were incubated at 37° C. After 4 hours the test substances were added in various concentrations (0 μM, as well as in the range of 0.001-10 μM; the final concentration of the solvent dimethyl sulfoxide was adjusted to 0.1%) using a Hewlett-Packard HP D300 Digital Dispenser. The cells were incubated for another 92 hours at 37° C. in the presence of test substances. […] After three washing cycles of the fixed cells with water, the plates were dried at room temperature. The cells were stained by adding 100 μL/measuring point of a 0.1% crystal violet solution (pH 3.0). After three washing cycles of the stained cells with water, the plates were dried at room temperature. The dye was dissolved by adding 100 μL/measuring point of a 10% acetic acid solution. […] The change of cell number, in percent, was calculated by normalization of the measured values to the absorption values of the zero-point plate (=0%) and the 5 absorption of the untreated (0 μm) cells (=100%). The IC50 values were determined by means of a 4 parameter fit.

[2] = tested on: Bub1 kinase (pre-induced phospho-histone 2A); test: H2A Abrogation-Assay (cell-based mechanistic assay, pre-treatment with Nocodazole); settings: read-out: Biological Assay 4.2: H2A Abrogation IC50
Experimental: Biological Assay 4.2: Abrogation-Assay
Cell-Based Mechanistic Assay: Changes of Phosphorylation Status of Pre-Induced Phospho-Histone 2A by Inhibition of Kinase Activity of Bub1
This assay measures the inhibition of histone 2A phosphorylation, which was induced by pre-treatment of the cells with Nocodazole, by a Bub1 kinase inhibitor. 25000 cells (cells were ordered from ATCC) were seeded in 96 well plate for 5 h at 37° C. Cells were treated with Nocodazole (1 μg/ml). After 16h varying concentrations (between 3 nM and 10 μM) of test compounds were added and the cells were incubated for another 1h. Cells were fixed (20 min, Fixing solution R&D), washed three times with PBS and blocked with Odyssey blocking buffer before incubating with the primary antibody against phosphorylated H2A (5 μg/ml ABIN482721) overnight at 2-8° C. After washing, secondary IRDye-labeled antibody mix with cell stains was added for 1h and washed again with PBS. Plates were scanned with LiCor Odyssey Infrared Imager CLx at 800 nm for P-H2A and at 700 nm for cell stains Draq5/Sapphire. The quotient of 800 nm and 700 nm for Nocodazole only treated cells was set as 100% and the quotient of 800 nm and 700 nm of untreated cells was set as 0%. […] The IC50 values were determined by means of a 4 parameter fit.
(§2) Histone H2A is an immediate intracellular substrate of Bub1 kinase. Determination of the phosphorylation status of Histone H2A provides a direct measure of the intracellular activity of Bub1 kinase.

[3] = tested on: HeLa human cervical tumor cells; test: Proliferation assay (HeLa cell line); type: cell-based; settings: 96 h, 4 days incubation, crystal violet, read-out: Biological Assay 2: Proliferation assay (HeLa cell line) median IC50
Experimental: as §1, with “Human tumour cells were originally obtained from the American Type Culture Collection (ATCC), the Deutsche Sammlung von Mikroorganismen und Zellkulturen (DSMZ, German Collection of Microorganisms and Cell Cultures), or Epo GmbH Berlin. Cultivated” for “Cultivated”, “below), while the” for “below). The”, “with” for “with 3 nM of paclitaxel (Sigma-Aldrich) and the cells were incubated at 37° C. After 4 hours”, “substances” for “substances were added”, “4 days” for “another 92 hours at 37° C.”, “the” for “the 5”

[4] = target: T1, catalytic domain of human Bub1 (amino acids 704-1085) (Homo sapiens, UniProt O43683); test: Bub1 kinase assay (TR-FRET); type: biochemical; settings: 10 μM ATP, 60 min reaction, pH 7.5; read-out: Biological Assay 1: Bub1 kinase assay median IC50
T1 construct: catalytic domain of human Bub1 (amino acids 704-1085); His6 (N); made in house; host or cells: Hi5 insect cells
Experimental: To this end, 100-fold concentrated compound solutions (in DMSO) were previously prepared by serial dilution (1:3.4) of 2 mM stocks in a clear low volume 384-well source microtiter plate (Greiner Bio-One, Frickenhausen, Germany), from which 50 nL of compounds were transferred into a black low volume test microtiter plate from the same supplier. […] The resulting mixture (5 μL final volume) was incubated at 22° during 60 min., and the reaction was stopped by the addition of 5 μL of an aqueous EDTA-solution (50 mM EDTA, in 100 mM HEPES pH 7.5 and 0.2% (w/v) bovine serum albumin) which also contained the TR-FRET detection reagents (0.2 μM streptavidin-XL665 [Cisbio Bioassays, Codolet, France] and 1 nM anti-phosho-Serine antibody [Merck Millipore, cat. #35-001] and 0.4 nM LANCE EU-W1024 labeled anti-mouse IgG antibody [Perkin-Elmer, product no. AD0077, alternatively a Terbium-cryptate-labeled anti-mouse IgG antibody from Cisbio Bioassays can be used]). The stopped reaction mixture was further incubated 1 h at 22° C. in order to allow the formation of complexes between peptides and detection reagents. Subsequently, the amount of product was evaluated by measurement of the resonance energy transfer from the Eu-chelate-antibody complex recognizing the Phosphoserine residue to the streptavidin-XL665 bound to the biotin moiety of the peptide. […] IC50 values were calculated by fitting the normalized inhibition data to a 4-parameter logistic equation (Minimum, Maximum, IC50, Hill; Y=Max+(Min−Max)/(1+(X/IC50)Hill)).

[5] = tested on: Bub1 kinase (histone 2A phosphorylation); test: H2A Formation-Assay (cell-based mechanistic assay, co-treatment with Nocodazole); settings: 16 h, Nocodazole 1 μg/ml together with test compound for 16 h; read-out: Biological Assay 4.1: H2A Formation IC50
Experimental: Biological Assay 4.1: Formation-Assay
Cell-Based Mechanistic Assay: Changes of Phosphorylation Status of Histone 2A by Inhibition of Kinase Activity of Bub1
This assay determines the suppression of histone 2A phosphorylation by a Bub1 kinase inhibitor during co-treatment with Nocodazole. 25000 cells (cells were ordered from ATCC) were seeded in 96 well plate for 5 h at 37° C. Cells were treated with Nocodazole (1 μg/ml) and varying concentrations (between 3 nM and 10 μM) of test compounds for 16h. Cells were fixed (20 min, Fixing solution R&D), washed three times with PBS and blocked with Odyssey blocking buffer before incubating with the primary antibody against phosphorylated H2A (5 μg/ml ABIN482721) overnight at […]. After washing, secondary IRDye-labeled antibody mix with cell stains was added for 1h and washed again with PBS. Plates were scanned with LiCor Odyssey Infrared Imager CLx at 800 nm for P-H2A and at 700 nm for cell stains Draq5/Sapphire. The quotient of 800 nm and 700 nm for Nocodazole only treated cells was set as 100% and the quotient of 800 nm and 700 nm of untreated cells was set as 0%. […] The IC50 values were determined by means of a 4 parameter fit.
as §2

[6] = Nocodazole 1 μg/ml 16 h, then test compound 1 h

T1 sequence (O43683 704-1085): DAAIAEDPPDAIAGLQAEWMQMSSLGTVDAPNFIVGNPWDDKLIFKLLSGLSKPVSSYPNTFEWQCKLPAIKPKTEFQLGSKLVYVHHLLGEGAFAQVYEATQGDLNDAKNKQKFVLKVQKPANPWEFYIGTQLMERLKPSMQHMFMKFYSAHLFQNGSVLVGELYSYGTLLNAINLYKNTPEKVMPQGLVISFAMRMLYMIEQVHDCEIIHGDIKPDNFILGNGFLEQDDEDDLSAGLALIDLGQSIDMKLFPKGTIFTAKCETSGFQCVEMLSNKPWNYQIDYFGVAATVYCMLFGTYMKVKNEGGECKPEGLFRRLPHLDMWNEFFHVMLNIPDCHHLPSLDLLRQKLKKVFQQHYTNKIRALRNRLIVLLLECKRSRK

Row | Structure (SMILES) | IC50 [1] | IC50 [2, 6] | IC50 [3] | IC50 [4] | IC50 [5] | IC50 [2]
1 | CCOc1cc(F)c(Cn2nc(-c3ncc(OC)c(Nc4ccncc4)n3)c3ccccc32)c(F)c1 [Example 6-4-1, 2-[1-(4-ethoxy-2,6-difluorobenzyl)-1 H-indazol-3-yl]-5-methoxy-N-(pyridin-4-yl)pyrimidin-4-amine, reference compound] | 660 nM | 920 nM | 2400 nM | 52 nM | 74 nM | 
2 | COc1cnc(-c2nn(Cc3c(F)cc(OCCO)cc3F)c3ccccc23)nc1Nc1ccncn1 [Example 2-1-13, 2-[3,5-difluoro-4-({3-[5-methoxy-4-(pyrimidin-4-ylamino)pyrimidin-2-yl]-1H-indazol-1-yl}methyl)phenoxy]ethanol] | 510 nM | 2.7 nM | > 10000 nM | 5 nM | 18 nM | 
3 | COc1cnc(-c2nn(Cc3c(F)cc(OC[C@H](C)CO)cc3F)c3ccccc23)nc1Nc1cc(C)ncc1C [Example 2-3-5, (2R)-3-{4-[(3-{4-[(2,5-dimethylpyridin-4-yl)amino]-5-methoxypyrimidin-2-yl}-1H-indazol-1-yl)methyl]-3,5-difluorophenoxy}-2-methylpropan-1-ol] | 69 nM | > 1000 nM | 3300 nM | 58 nM | 2 nM | 
4 | COc1cnc(C)cc1Nc1nc(-c2nn(Cc3c(F)cc(OCCO)cc3F)c3ccccc23)ncc1OC [Example 2-1-19, 2-{3,5-difluoro-4-[(3-{5-methoxy-4-[(5-methoxy-2-methylpyridin-4-yl)amino]pyrimidin-2-yl}-1H-indazol-1-yl)methyl]phenoxy}ethanol] | 140 nM |  | > 10000 nM | 95 nM |  | 
5 | COc1cnc(-c2nn(Cc3c(F)cc(OCCO)cc3F)c3ccccc23)nc1Nc1ccncc1C1CC1 [Example 2-1-9, 2-{4-[(3-{4-[(3-cyclopropylpyridin-4-yl)amino]-5-methoxypyrimidin-2-yl}-1H-indazol-1-yl)methyl]-3,5-difluorophenoxy}ethanol] |  |  |  | 13 nM |  | 
6 | COc1cnc(-c2nn(Cc3c(F)cc(OCCOC(C)=O)cc3F)c3ccccc23)nc1Nc1ccncc1 [Example 6-3-1, 2-[3,5-difluoro-4-({3-[5-methoxy-4-(pyridin-4-ylamino)pyrimidin-2-yl]-1H-indazol-1-yl}methyl)phenoxy]ethyl acetate, reference compound] | 650 nM |  | 3300 nM |  |  | 3600 nM
7 | COc1cnccc1Nc1nc(-c2nn(Cc3c(F)cc(OCCCO)cc3F)c3ccccc23)ncc1OC [Example 2-3-2, 3-{3,5-difluoro-4-[(3-{5-methoxy-4-[(3-methoxypyridin-4-yl)amino]pyrimidin-2-yl}-1H-indazol-1-yl)methyl]phenoxy}propan-1-ol] | 55 nM | 9.8 nM | 1000 nM | 10 nM |  | 
8 | CCOc1cc(F)c(Cn2nc(-c3ncc(OCCOCCNC(=S)Nc4ccc(-c5c6ccc(=O)cc-6oc6cc(O)ccc56)c(C(=O)O)c4)c(Nc4ccncc4)n3)c3ccccc32)c(F)c1 [Example 6-5-1, 5-[({2-[2-({2-[1-(4-ethoxy-2,6-difluorobenzyl)-1H-indazol-3-yl]-4-(pyridin-4-ylamino)pyrimidin-5-yl}oxy)ethoxy]ethyl}carbamothioyl)amino]-2-(6-hydroxy-3-oxo-3H-xanthen-9-yl)benzoic acid, reference compound] |  |  |  | 21 nM |  | 
9 | COc1cnc(-c2nn(Cc3c(F)cc(OCCO)cc3F)c3ccccc23)nc1Nc1cc(C)ncc1C [Example 2-1-8, 2-{4-[(3-{4-[(2,5-dimethylpyridin-4-yl)amino]-5-methoxypyrimidin-2-yl}-1H-indazol-1-yl)methyl]-3,5-difluorophenoxy}ethanol] | 120 nM |  | > 10000 nM | 31 nM |  | 
10 | COc1cnc(-c2nn(Cc3c(F)cc(OCCO)cc3F)c3ccccc23)nc1Nc1ccnc(C(F)F)c1 [Example 2-1-7, 2-(4-{[3-(4-{[2-(difluoromethyl)pyridin-4-yl]amino}-5-methoxypyrimidin-2-yl)-1H-indazol-1-yl]methyl}-3,5-difluorophenoxy)ethanol] | 480 nM |  | 9100 nM | 23 nM | 27 nM | 
11 | COc1cnc(-c2nn(Cc3c(F)cc(OCCO)cc3F)c3ccccc23)nc1Nc1cc(C)nc(C)n1 [Example 2-4-1, 2-{4-[(3-{4-[(2,6-dimethylpyrimidin-4-yl)amino]-5-methoxypyrimidin-2-yl}-1H-indazol-1-yl)methyl]-3,5-difluorophenoxy}ethanol] |  |  |  | 37 nM |  | 
